Where “and” joins values, the source holds several entries; their conditions need not be identical. Equal entries are not always repeated.
Tested on: 991263-137-R1-J2-PDC complex spheroid viability
Experiment: Anticancer human tumor 991263-137-R1-J2-PDC patient-derived colon adenocarcinoma cell line growth inhibition [POLQ]
Settings: for viability, T/C: stronger effect = lower value
Procedure: Multicellular complex tumor spheroid response to Polymerase (POL) inhibitors (novobiocin, ART-558, RP6685) in combination with a variety of drugs and investigational agents in selected tumor cell lines
The POL inhibitors (novobiocin, ART-558, and RP6685) were evaluated both individually and in combination with standard of care and investigational anticancer small molecules within a complex spheroid model of solid tumors. . Complex spheroids include a stromal component modeled by human endothelial cells (HUVEC) and fibroblasts modeled by human mesenchymal stem cells (MSCs). The concentration ranges selected for each drug and investigational agent were based upon clinically achievable concentrations if the clinical Cmax of the agent was known.
Compounds. The drugs and investigational agents: novobiocin (NSC847541), ART-558 (NSC835418), RP-6685 (NSC848927), peposertib (NSC802822), ceralasertib (NSC780249), elimusertib (NSC800525), camonsertib (NSC841442), AZD-1390 (NSC803789), olaparib (NSC753686), talazoparib (NSC767125), rucaparib (NSC756644), sotorasib (NSC818433), MRTX-1133 (NSC836407), SN-38 (NSC673596), topotecan (NSC609699), epotoside (NSC141540), doxorubicin (NSC123127), gemcitabine (NSC613327), 5-fluorouracil (NSC19893), paclitaxel (NSC125973), vemurafenib (NSC761431), MSA-2 (NSC828583), SN-011 (NSC837082), adavosertib (NSC754352), prexasertib (NSC758257), carboplatin (NSC241240) and oxaliplatin (NSC266046), were obtained from the National Cancer Institute (NCI) Developmental Therapeutics Program Chemical Repository (21). The FDA-approved anticancer drug set is available from the Developmental Therapeutics Program at https://dtp.cancer.gov/organization/dscb/obtaining/. […] The stock solutions were prepared in dimethyl sulfoxide (DMSO, Sigma-Aldrich, St. Louis, MO, cat. D2650), except for the platinum compounds which were prepared in saline (Quality Biological, Gaithersburg, MD, cat. 114-055-101), at 800-fold the tested concentration and stored at -70 degrees C prior to their use. All drugs and investigational agents were tested over a range starting from a high concentration at or near the clinical Cmax and decreasing in half-log increments. If the clinical Cmax for an agent had not been determined, the highest concentration tested was 10 microM, except for SN-38, which was tested at a high concentration of 1 microM.
Cell Culture. All cells were maintained in an incubator at 37 degrees C and 5% CO2 with 95% humidity. The PDC lines were cultured according to standard operating procedures established by the NCI PDMR (https://pdmr.cancer.gov). Table 3 of the manuscript, lists the cell lines along with the number of the three cell types plated to form the mct-spheroids and media for tumor cell growth. After thawing, all PDC lines, except 997537-175-T-J1-PDC and 415267-285-R-J2-PDC, were cultured in Matrigel-coated flasks prepared with a working solution of 1X Ham's F-12 nutrient mix, without supplementation (Thermo Fisher Scientific, cat. 11765054), 100 U/mL penicillin-streptomycin (Thermo Fisher Scientific, cat. 15140122), and 2.5% Matrigel (Corning Inc., Corning, NY, cat. 354248) for the first three passages. The two PDC lines 997537-175-T-J1-PDC and 415267-285-R-J2-PDC were cultured on uncoated flasks. The 857933-349-R-J2-PDC line was cultured in 6C/Colon 1B media containing advanced DMEM/F-12 (Thermo Fisher Scientific, cat. 12634028), 10 mM HEPES (Thermo Fisher Scientific, cat. 15630080), 1X GlutaMAX supplement (Thermo Fisher Scientific, cat. 35050061), 0.1 mg/mL primocin (InvivoGen, San Diego, CA, cat. ant-pm-2), 10% defined fetal bovine serum, heat inactivated (HyClone Laboratories Inc., Logan, UT, cat. SH30070.03HI), 50% L-WRN conditioned media (ATCC, cat. CRL-3276), 1.25 mM N-Acetyl-L-cysteine (Sigma-Aldrich, cat. A9165), 10 mM nicotinamide (Sigma-Aldrich, cat. N0636), 1X B-27 supplement (Thermo Fisher Scientific, cat. 17504044), 1X N-2 supplement (Thermo Fisher Scientific, cat. […]

[1] = compound alone, run of 01/08/2024
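Also: spheroids exposed to compounds for 7 days before readout.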
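For viability, T/C in this document: 100% = DMSO vehicle control viability.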

C=CC(=O)N1CCN(c2nc(=O)n(-c3c(C)ccnc3C(C)C)c3nc(-c4c(O)cccc4F)c(F)cc23)C(C)C1 (stereo not drawn)
viability, T/C (compound 0.0316 µM): 119% and 99.2% and 102% | viability, T/C (compound 0.1 µM): 104% (2×) and 89.8% | viability, T/C (compound 0.316 µM): 107% and 105% and 103% | viability, T/C (compound 1 µM): 118% and 107% and 104% | viability, T/C (compound 10 µM): 104% and 108% and 110% | IC50 (curve of compound): > 10000 nM

CC1COCCN1c1cc(C2(S(C)(=N)=O)CC2)nc(-c2ccnc3[nH]ccc23)n1 (stereo not drawn)
viability, T/C (compound 0.0316 µM): 107% and 98.9% and 98.6% | viability, T/C (compound 0.1 µM): 96.1% and 109% and 104% | viability, T/C (compound 0.316 µM): 100% and 94.6% and 92.8% | viability, T/C (compound 1 µM): 103% and 101% and 95.1% | viability, T/C (compound 3.16 µM): 83% and 97.9% and 103% | viability, T/C (compound 10 µM): 75.5% and 93.9% and 74.7% | IC50 (curve of compound): > 10000 nM

O=C(Nc1ccc(O)c(NS(=O)(=O)c2ccc(F)cc2)c1)c1ccc(-c2ccccc2)cc1
viability, T/C (compound 0.0316 µM): 101% (2×) and 109% | viability, T/C (compound 0.1 µM): 98.5% and 91.8% and 94.6% | viability, T/C (compound 0.316 µM): 113% and 109% and 100% | viability, T/C (compound 1 µM): 97.6% and 98.6% and 105% | viability, T/C (compound 3.16 µM): 96.9% and 88.3% and 105% | viability, T/C (compound 10 µM): 101% and 97.1% and 79.9% | IC50 (curve of compound): > 10000 nM

Cc1cccc(N(C)C(=O)C2C(O)CCN2c2nc(C)cc(C(F)(F)F)c2C#N)c1 (stereo not drawn)
viability, T/C (compound 0.0316 µM): 101% [middle of 13 runs] | viability, T/C (compound 0.1 µM): 99.2% [middle of 13 runs] | viability, T/C (compound 3.16 µM): 101% [middle of 13 runs] | viability, T/C (compound 10 µM): 100% [middle of 13 runs] | IC50 [1]: > 10000 nM | IC50 (compound alone, run of 01/19/2024): > 10000 nM

COc1ccc([C@@H](O)c2cc(-c3ncnc4cc(N5CCOCC5)ccc34)c(F)cc2Cl)nn1
viability, T/C (compound 0.0316 µM): 105% and 102% and 82.6% | viability, T/C (compound 0.1 µM): 84.6% and 103% and 79.1% | viability, T/C (compound 0.316 µM): 98.5% and 95.2% and 91.9% | viability, T/C (compound 1 µM): 87% and 97.5% and 103% | viability, T/C (compound 3.16 µM): 68% and 66.7% and 59.3% | viability, T/C (compound 10 µM): 28.5% and 31.4% and 28.6% | IC50 (curve of compound): 5360 nM and 5450 nM and 4480 nM

COc1cccc2c1C(=O)c1c(O)c3c(c(O)c1C2=O)CC(O)(C(=O)CO)CC3OC1CC(N)C(O)C(C)O1 (stereo not drawn) + Nc1ccc(C#CCN(C(=O)Cc2ncc(C(F)(F)F)cc2C(F)(F)F)c2ccc(F)cc2)nn1
IC50 (curve of first compound, second compound 0.0316 µM): 1270 nM | IC50 (curve of first compound, second compound 0.1 µM): 1480 nM | IC50 (curve of first compound, second compound 0.316 µM): 1250 nM | IC50 (curve of first compound, second compound 1 µM): 1040 nM | IC50 (curve of first compound, second compound 3.16 µM): 822 nM | IC50 (curve of first compound, second compound 10 µM): 614 nM | viability, T/C (second compound 0.0316 µM, first compound 0.0316 µM): 102% | viability, T/C (second compound 0.0316 µM, first compound 0.1 µM): 92.4% | viability, T/C (second compound 0.0316 µM, first compound 0.316 µM): 92.8% | viability, T/C (second compound 0.0316 µM, first compound 1 µM): 51.7% | viability, T/C (second compound 0.0316 µM, first compound 3.16 µM): 43.4% | viability, T/C (second compound 0.0316 µM, first compound 10 µM): 42.6% | viability, T/C (second compound 0.1 µM, first compound 0.0316 µM): 103% | viability, T/C (second compound 0.1 µM, first compound 0.1 µM): 97.8% | viability, T/C (second compound 0.1 µM, first compound 0.316 µM): 91.5% | viability, T/C (second compound 0.1 µM, first compound 1 µM): 53.2% | viability, T/C (second compound 0.1 µM, first compound 3.16 µM): 45.1% | viability, T/C (second compound 0.1 µM, first compound 10 µM): 40.2% | viability, T/C (second compound 0.316 µM, first compound 0.0316 µM): 94.7% | viability, T/C (second compound 0.316 µM, first compound 0.1 µM): 98% | viability, T/C (second compound 0.316 µM, first compound 0.316 µM): 91.9% | viability, T/C (second compound 0.316 µM, first compound 1 µM): 53% | viability, T/C (second compound 0.316 µM, first compound 3.16 µM): 38% | viability, T/C (second compound 0.316 µM, first compound 10 µM): 35.1% | viability, T/C (second compound 1 µM, first compound 0.0316 µM): 88.6% | viability, T/C (second compound 1 µM, first compound 0.1 µM): 109% | viability, T/C (second compound 1 µM, first compound 0.316 µM): 81.8% | viability, T/C (second compound 1 µM, first compound 1 µM): 52% | viability, T/C (second compound 1 µM, first compound 3.16 µM): 37.4% | viability, T/C (second compound 1 µM, first compound 10 µM): 37.4% | viability, T/C (second compound 3.16 µM, first compound 0.0316 µM): 90.6% | viability, T/C (second compound 3.16 µM, first compound 0.1 µM): 94.3% | viability, T/C (second compound 3.16 µM, first compound 0.316 µM): 76.9% | viability, T/C (second compound 3.16 µM, first compound 1 µM): 43.8% | viability, T/C (second compound 3.16 µM, first compound 3.16 µM): 38.4% | viability, T/C (second compound 3.16 µM, first compound 10 µM): 28.8% | viability, T/C (second compound 10 µM, first compound 0.0316 µM): 91.6% | viability, T/C (second compound 10 µM, first compound 0.1 µM): 88.4% | viability, T/C (second compound 10 µM, first compound 0.316 µM): 61.2% | viability, T/C (second compound 10 µM, first compound 1 µM): 39.3% | viability, T/C (second compound 10 µM, first compound 3.16 µM): 28.8% | viability, T/C (second compound 10 µM, first compound 10 µM): 16.4%

COC1C(OC(N)=O)C(O)C(Oc2ccc3c(O)c(NC(=O)c4ccc(O)c(CC=C(C)C)c4)c(=O)oc3c2C)OC1(C)C (stereo not drawn)
viability, T/C (compound 0.0316 µM): 102% [middle of 12 runs] | viability, T/C (compound 0.316 µM): 103% [middle of 12 runs] | IC50 [1]: > 10000 nM
